In patent US20230287416A1, “COMBINATORY TREATMENT OF SMA WITH SARNA AND MRNA MODULATORS” (RACTIGEN THERAPEUTICS, priority 2020, published 2023):

Key:
Assay type in all cases: cell-based, human
SMN2 mRNA [1] = assay: RT-qPCR of SMN2FL and SMN2 Δ7 mRNA in GM00232 cells; details: GM00232, 72 h
Procedure: (§1) To determine whether the combination of saRNA (DS06-0004) and ASO-10-27 has an enhanced effect on SMN2FL induction in type I SMA cells, GM00232 cells were transfected with DS06-0004 and ASO-10-27 alone or in combination at different concentrations for 72 hours. SMN2 expression was assessed in the treated cells by RT-qPCR (FIGS. 4A and 4D) and PCR/digestion (FIGS. 4B, 4C and 4E).
“GM00232 cells” refers to fibroblast cells provided by Coriell Institute for Medical Research. This cell line is described as SPINAL MUSCULAR ATROPHY I; SMA1. The donor subject has 2 copies of the SMN2 gene (data from several sources including Stabley et al. 2015, PMID 26247043) and is homozygous for deletion of exons 7 and 8 of the SMN1 gene. The relevant gene is SMN1; the chromosomal location is 5q12.2-q13.3, the allelic variant is described as exons 7 and 8 deleted; SPINAL MUSCULAR ATROPHY, TYPE I; and the identified mutation: is EX7-8DEL. The phenotype data derived from a fibroblast from skin (arm) of the following subject characterized as: Progressive muscular atrophy; absent deep tendon reflexes; abnormal EMG; donor subject has 2 copies of the SMN2 gene (data from several sources including Stabley et al. 2015, PMID 26247043) and is homozygous for deletion of exons 7 and 8 of the SMN1 gene.
(§2) SMA patient derived fibroblasts were obtained from Coriell Institute (Camden, N.J., USA), including GM00232 (SMA type I with 2 copies of SMN2 gene) and GM03813 (SMA type II with 3 copies of SMN2 gene). These cells were cultured at 5% C02 and 37° C. in modified MEM medium (Gibco, Thermo Fisher Scientific, Carlsbad, Calif.) supplemented with 15% bovine calf serum (Sigma-Aldrich), 1% NEAA (Gibco) and 1% penicillin/streptomycin (Gibco). To transfect oligonucleotides including saRNAs, siRNA and ASO, cells were seeded into 6-well plates at a density of 1×10^5 cells/well and were transfected with oligonucleotides at different concentrations using RNAiMax (Invitrogen, Carlsbad, Calif.) according to the reverse transfection protocol provided by the manufacturer for 72 hours (unless otherwise specified). For Risdiplam treatment of cells, Risdiplam (HY-109101, MedChem Express Company, Monmouth Junction, N.J., USA) dissolved in DMSO was added directly to cells at desired concentration for 72 hours unless specified otherwise.
For RNA isolation from cultured cells, total cellular RNA was isolated from treated cells using an RNeasy Plus Mini kit (Qiagen, Hilden, Germany) according to its manual. To isolated RNA from animal tissues, tissues were harvested and stored at RNA later (AM7021, Thermo Fisher). Total RNA was then isolated using MagPure Total RNA Micro LQ kit (Magen, R6621, China) by auto-pure96 machine (ALLSHENG, China). The resultant RNA (1 μg) was reverse transcribed into cDNA by using a PrimeScript RT kit containing gDNA Eraser (Takara, Shlga, Japan). The resultant cDNA was amplified in an ABI 7500 Fast Real-time PCR System (Applied Biosystems; Foster City, Calif.) using SYBR Premix Ex Taq 11 (Takara, Shlga, Japan) reagents and primers which specifically amplified full-length (SMN2FL) or A7 SMN2 mRNA (SMN2 Δ7) (FIG. 1). The reaction conditions were: 95° C. for 3 seconds (1 cycle) and 60° C. for 30 seconds (40 cycles). Amplification of TBP gene served as an internal control.

SMN2 mRNA [2] = assay: as above; details: GM00232, 72 h; remark: listed apart in the source
SMN2 mRNA [3] = assay: Semi-quantitative RT-PCR (DdeI digestion) of SMN2FL and SMN2 Δ7 in GM03813 cells; details: GM03813, 72 h
Procedure: Seventy-two hours later, total cellular RNA was isolated from the treated cells and reverse transcribed into cDNA. SMN2 mRNA expression was assessed with RT-qPCR using primer pairs specific for SMN2FL or SMN2 Δ7. SMN2 mRNA expression was also assessed by semi-quantitative RT-PCR using a primer pair that amplifies both SMN2FL and SMN2 Δ7 followed by DdeI digestion (PCR/digestion). […] After digestion, both bands were reduced by 115 bp, resulting in two products: 392 bp (SMN2FL) and 338 bp (SMN2 Δ7) as shown on the gel of FIG. 3D. FIG. 3A-3D show dose-dependent changes in SMN2FL and SMNΔ7 mRNA as assessed by RT-qPCR and PCR/digestion respectively. FIG. 3E-3G are graphic plots of data from quantitating the intensity of bands in FIG. 3D.
as §2
To amplify both SMN2FL and SMN2 Δ7 in one reaction, cDNA was amplified by semi-quantitative RT-PCR using primers that spans exon 7 of SMN2 (Table 5) (FIG. 2). The PCR reaction conditions were: 94° C. for 2 minutes (1 cycle), 98° C. for 10 seconds, 60° C. for 15 seconds, 72° C. for 32 seconds, cycled for 30 time with a final 5 minutes extension at 72° C. To further differentiate SMN1 mRNA from SMN2, the resultant PCR products of SMN were digested by DdeI restriction enzyme (R0175L, NEB) and then separated by 2% agarose gel. Due to a nucleotide variant on […] of SMN2, a DdeI recognition site exists in PCR products amplified from SMN2 gene but not from SMN1 gene, DdeI digestion releases a 115 bp fragment from both SMN2FL and SMN2 Δ7, resulting […]: 507 (SMN1FL), 338 (SMN2 Δ7), 392 (SMN2FL) and 115 bp (FIG. 2). TBP gene was also amplified as a RNA loading control. The DdeI digestion reaction conditions were: 37° C. for 60 minutes and 65° C. for 20 minutes, 1cycle.

SMN2 mRNA [4] = assay: Semi-quantitative RT-PCR/DdeI digestion of SMN2FL and SMN2 Δ7 in GM00232 cells; details: GM00232, 72 h
Procedure: as §1
as §2, with “For Risdiplam treatment of cells, Risdiplam (HY-109101, MedChem Express Company, Monmouth Junction, N.J., USA) dissolved in DMSO was added directly to cells at desired concentration for 72 hours unless specified otherwise.” left out
To amplify both SMN2FL and SMN2 Δ7 in one reaction, cDNA was amplified by semi-quantitative RT-PCR using primers that spans exon 7 of SMN2 (Table 5) (FIG. 2). […]

[5] = PCR/digestion (Example 1, FIG. 3E)

DS06-0004: saRNA targeting SMN2 promoter at -281; SEQ ID NO: 476/477 (Table 8: SEQ ID NO: 131/288) (chain 1 AGACGAGGCCUAAGCAACATT; chain 2 UGUUGCUUAGGCCUCGUCUTT; chemistry not given here)
SMN2 Δ7 mRNA fold change (SMN2 mRNA [1]; 1 nM (Example 2)): 1.5 fold
SMN2FL mRNA fold change (SMN2 mRNA [1]; 1 nM (Example 2, FIG. 4A)): 1.7 fold
SMN2FL mRNA fold change (SMN2 mRNA [1]; 5 nM (Example 2)): 2.4 fold
SMN2 Δ7 mRNA fold change (SMN2 mRNA [1]; 5 nM (Example 2)): 1.9 fold
SMN2FL mRNA fold change (SMN2 mRNA [1]; 25 nM (Example 2)): 2.4 fold
SMN2FL mRNA fold change (SMN2 mRNA [2]; 1 nM (Example 6)): 1.8 fold
SMN2 Δ7 mRNA fold change (SMN2 mRNA [2]; 1 nM (Example 6)): 1.6 fold
SMN2FL mRNA fold change (SMN2 mRNA [2]; 5 nM (Example 6)): 2.1 fold
SMN2 Δ7 mRNA fold change (SMN2 mRNA [2]; 5 nM (Example 6)): 1.6 fold
SMN2 Δ7 mRNA fold change (SMN2 mRNA [2]; 25 nM (Example 2)): 2.1 fold
SMN2FL mRNA fold change (SMN2 mRNA [2]; 25 nM (Example 6)): 2.0 fold
SMN2 Δ7 mRNA fold change (SMN2 mRNA [2]; 25 nM (Example 6)): 1.7 fold

Nusinersen [ASO-10-27]
SMN2FL mRNA fold change (SMN2 mRNA [3]; 25 nM, semi-quantitative RT-PCR/DdeI digestion (Example 4, FIG. 6B-6C)): 2.1 fold
concentration at which expression of SMN2FL reached its peak (SMN2 mRNA [3]; [5]): 10 nM
concentration at which expression of SMNΔ7 almost approached the lowest value (SMN2 mRNA [3]; [5]): 5 nM
SMN2FL mRNA fold change (SMN2 mRNA [3]; alone or in combination at 10 nM, semi-quantitative RT-PCR (Example 10, FIG. 12B-12C)): 1.4 fold
SMN2FL mRNA fold change (SMN2 mRNA [1]; 1 nM (Example 2, FIG. 4A)): 1.3 fold
SMN2 Δ7 mRNA change (SMN2 mRNA [1]; 1 nM, 5 nM and 25 nM (Example 2)): decrease
SMN2FL mRNA fold change (SMN2 mRNA [1]; 5 nM (Example 2)): 1.8 fold
SMN2FL mRNA fold change (SMN2 mRNA [1]; 25 nM (Example 2)): 1.9 fold
SMN2FL mRNA fold change (SMN2 mRNA [4]; 25 nM, PCR/DdeI digestion (Example 2, FIG. 4B-4C)): 2.3 fold

Cc1cn2nc(-c3cc(=O)n4cc(N5CCNC6(CC6)C5)ccc4n3)cc(C)c2n1 [Risdiplam]
SMN2FL mRNA fold change (SMN2 mRNA [3]; 1250 nM, PCR/DdeI digestion (Example 8, FIG. 10D-10F)): 2.1 fold
SMN2FL mRNA fold change (SMN2 mRNA [4]; 1250 nM, PCR/DdeI digestion (Example 6, FIG. 8D-8F)): 2.3 fold
SMN2FL mRNA fold change (SMN2 mRNA [2]; 50 nM (Example 6, FIG. 8A-8C)): 1.2 fold
SMN2 Δ7 mRNA change (SMN2 mRNA [2]; 50 nM, 250 nM and 1250 nM (Example 6)): decrease
SMN2FL mRNA fold change (SMN2 mRNA [2]; 250 nM (Example 6)): 1.8 fold
SMN2FL mRNA fold change (SMN2 mRNA [2]; 1250 nM (Example 6)): 1.9 fold
